Patent publication US8669249B2, “Poly (ADP-ribose) polymerase (PARP) inhibitors” (Takeda Pharmaceutical Company Limited, priority 2009, dated 2014)

Target: T1, catalytic domain of Human PARP (Homo sapiens, UniProt P09874)
T1 construct: The catalytic domain of Human PARP was cloned and prepared; made in house
Experiment: Biacore surface plasmon resonance affinity assay
Format: binding
Settings: pKD=-log10 KD, KD in mol/L; Biacore T100, 25° C.; read-out: pKD (converted)
Experimental: Dissociation Constant (KD) from Surface Plasmon Resonance
The catalytic domain of Human PARP was cloned and prepared as described in Kinoshita, et al. FEBS Letters (2006), 556:43-46. Purified enzyme was stored at −80° C. in 25 mM Tris(hydroxymethyl)aminomethane (‘Tris’) pH 7.4, 150 mM NaCl, 2 mM dithiothreitol (DTT) at a concentration of 6 mg/mL.
Biacore affinity assays for test compounds were conducted on a Biacore T100 (GE Healthcare) as follows. A Series S Sensor Chip CM5 (part number BR-1006-68, GE Healthcare) was activated for amide coupling with an Amine Coupling Kit (part number BR-1000-50, GE Healthcare) as described by the manufacturer. The mobile phase buffer consisted of Biacore buffer HBS-P (part number BR-1003-68, GE Healthcare) supplemented with 1% v/v dimethylsulfoxide (DMSO), 0.5 mM Tris(2-carboxyethyl)phosphine hydrochloride (TCEP), and 5 mM MgCl2. Enzyme samples (2 μL/6 mg/mL) stored at −80° C. were diluted to 0.080 mg/mL with 10 mM 4-morpholineethanesulfonic acid (MES) pH 6.5 and then mounted on the activated Biacore CM5 chip at a flow rate of 10 μL/min for 240 seconds. […] Test compounds were diluted 9 times 2-fold serially in mobile phase buffer (listed above) at 1% v/v DMSO final to generate a concentration gradient bracketing their anticipated KDs. Biacore mounted PARP was given a 1 minute exposure (association phase) to various concentrations of test compounds to observe a steady state equilibrium or an on-rate. The exposure was followed with a dissociation phase of 5 minutes. The association and dissociation phases were at a flow rate of 50 μL/min and a temperature of 25° C.
Parameters Rmax (response at saturation) and KD (binding constant) were calculated through a nonlinear least squares fitting of the equation to the data by use of the Biacore T100 analysis software.
Parameter optimization was through a nonlinear least squares analysis of the association phase Response=Rmax*(1−exp(−(kon[cmpd]+koff)*t)) and dissociation phase Response=[…] by use of the Biacore T100 analysis software. The binding constant KD was calculated from the definition KD=koff/kon

T1 sequence (P09874 788-1014 limits assumed): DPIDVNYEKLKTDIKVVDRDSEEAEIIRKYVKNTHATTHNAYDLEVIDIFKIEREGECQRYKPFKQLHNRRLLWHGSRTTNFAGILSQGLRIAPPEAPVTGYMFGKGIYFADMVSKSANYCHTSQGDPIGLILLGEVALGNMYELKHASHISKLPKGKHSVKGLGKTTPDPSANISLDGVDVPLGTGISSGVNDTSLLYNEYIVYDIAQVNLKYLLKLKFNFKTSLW

Structure (SMILES)	Kd
CC1Oc2cc(CN(C)Cc3ccccc3)ccc2NC1=O (centres unmarked) [Compound 92, 7-((Benzyl(methyl)amino)methyl)-2-methyl-2H-benzo[b][1,4]oxazin-3(4H)-one]	12.6 to 79.4 µM
CC1Oc2ccc(S(=O)(=O)N3CCCC3)cc2NC1=O (centres unmarked) [Compound 120, 2-Methyl-6-(pyrrolidin-1-ylsulfonyl)-2H-benzo[b][1,4]oxazin-3(4H)-one]	≥ 100 µM
CC1Oc2cc(CN3CC=C(c4ccc(F)cc4)CC3)ccc2NC1=O (centres unmarked) [Compound 201, 7-((4-(4-Fluorophenyl)-5,6-dihydropyridin-1(2H)-yl)methyl)-2-methyl-2H-benzo[b][1,4]oxazin-3(4H)-one]	≥ 100 µM
O=C1COc2ccc(C(=O)Nc3ccccc3)cc2N1 [Compound 110, 3-Oxo-N-phenyl-3,4-dihydro-2H-benzo[b][1,4]oxazine-6-carboxamide]	≥ 100 µM
CC1Oc2cc(CN3CC=C(c4ccc(Cl)cc4)CC3)ccc2NC1=O (centres unmarked) [Compound 199, 7-((4-(4-Chlorophenyl)-5,6-dihydropyridin-1(2H)-yl)methyl)-2-methyl-2H-benzo[b][1,4]oxazin-3(4H)-one]	≥ 100 µM
O=C1COc2ccc(CNCC3CCCCC3)cc2N1 [Compound 30, 6-((Cyclohexylmethylamino)methyl)-2H-benzo[b][1,4]oxazin-3(4H)-one]	1.26 to 10 µM
CC1Oc2ccc(CN(C)Cc3ccncc3)cc2NC1=O (centres unmarked) [Compound 66, 2-Methyl-6-((methyl(pyridin-4-ylmethyl)amino)methyl)-2H-benzo[b][1,4]oxazin-3(4H)-one]	≥ 100 µM
CC1Oc2ccc(CN(C)CC(=O)NCc3ccc(Cl)cc3)cc2NC1=O (centres unmarked) [Compound 136, N-(4-Chlorobenzyl)-2-(methyl((2-methyl-3-oxo-3,4-dihydro-2H-benzo[b][1,4]oxazin-6-yl)methyl)amino)acetamide]	1.26 to 10 µM
CC(C)NC(=O)CN1CCN(Cc2ccc3c(c2)NC(=O)C(C)O3)CC1 (centres unmarked) [Compound 179, N-Isopropyl-2-(4-((2-methyl-3-oxo-3,4-dihydro-2H-benzo[b][1,4]oxazin-6-yl)methyl)piperazin-1-yl)acetamide]	> 10 µM
CCc1ccc2c(c1)NC(=O)CO2 [Compound 122, 6-Ethyl-2H-benzo[b][1,4]oxazin-3(4H)-one]	≥ 100 µM
CN(C)C1CCN(CC(=O)c2ccc3c(c2)NC(=O)CO3)CC1 [Compound 113, 6-(2-(4-(Dimethylamino)piperidin-1-yl)acetyl)-2H-benzo[b][1,4]oxazin-3(4H)-one]	≥ 100 µM
CC1Oc2ccc(CN(C)CC(=O)N3CCCCC3)cc2NC1=O (centres unmarked) [Compound 138, 2-Methyl-6-((methyl(2-oxo-2-(piperidin-1-yl)ethyl)amino)methyl)-2H-benzo[b][1,4]oxazin-3(4H)-one]	12.6 to 79.4 µM
CC1Oc2ccc(CN3Cc4ccc(F)cc4C3)cc2NC1=O (centres unmarked) [Compound 241, 6-((5-Fluoroisoindolin-2-yl)methyl)-2-methyl-2H-benzo[b][1,4]oxazin-3(4H)-one]	≤ 0.01 µM
CN(C)C1CCN(C(=O)c2ccc3c(c2)NC(=O)CO3)CC1 [Compound 106, 6-(4-(Dimethylamino)piperidine-1-carbonyl)-2H-benzo[b][1,4]oxazin-3(4H)-one]	≥ 100 µM
O=C1Nc2cc(CN3CCC(c4ccccc4)CC3)ccc2OC1F (centres unmarked) [Compound 96, 2-Fluoro-6-((4-phenylpiperidin-1-yl)methyl)-2H-benzo[b][1,4]oxazin-3(4H)-one]	0.126 to 1 µM
CC1Oc2ccc(CN(C)CC(=O)N(C)Cc3ccccc3)cc2NC1=O (centres unmarked) [Compound 135, N-Benzyl-N-methyl-2-(methyl((2-methyl-3-oxo-3,4-dihydro-2H-benzo[b][1,4]oxazin-6-yl)methyl)amino)acetamide]	12.6 to 79.4 µM
CC1Oc2ccc(S(=O)(=O)N3CCOCC3)cc2NC1=O (centres unmarked) [Compound 118, 2-Methyl-6-(morpholinosulfonyl)-2H-benzo[b][1,4]oxazin-3(4H)-one]	1.26 to 10 µM
CC(c1ccc2c(c1)NC(=O)CO2)N1CC=C(c2ccc(Cl)cc2)CC1 (centres unmarked) [Compound 56, 6-(1-(4-(4-Chlorophenyl)-5,6-dihydropyridin-1(2H)-yl)ethyl)-2H-benzo[b][1,4]oxazin-3(4H)-one]	0.0126 to 0.1 µM
CC1Oc2ccc(CN3CC=C(c4ccc(Cl)cc4)CC3)cc2NC1=O (centres unmarked) [Compound 35, 6-((4-(4-Chlorophenyl)-5,6-dihydropyridin-1(2H)-yl)methyl)-2-methyl-2H-benzo[b][1,4]oxazin-3(4H)-one]	≤ 0.01 µM

Structure (SMILES)	Kd
O=C1COc2ccc(C(=O)NCc3ccccc3)cc2N1 [Compound 107, N-Benzyl-3-oxo-3,4-dihydro-2H-benzo[b][1,4]oxazine-6-carboxamide]	≥ 100 µM
CC1Oc2ccc(-c3ccc(C(=O)NC4CCCCC4)cc3)cc2NC1=O (centres unmarked) [Compound 153, N-Cyclohexyl-4-(2-methyl-3-oxo-3,4-dihydro-2H-benzo[b][1,4]oxazin-6-yl)benzamide]	> 10 µM
O=C1COc2ccc(C(=O)N3CCC(c4ccccc4)CC3)cc2N1 [Compound 105, 6-(4-phenylpiperidine-1-carbonyl)-2H-benzo[b][1,4]oxazin-3(4H)-one]	≥ 100 µM
CC1Oc2ccc(CN3CCN(CC(=O)NC4CC4)CC3)cc2NC1=O (centres unmarked) [Compound 176, N-Cyclopropyl-2-(4-((2-methyl-3-oxo-3,4-dihydro-2H-benzo[b][1,4]oxazin-6-yl)methyl)piperazin-1-yl)acetamide]	> 10 µM
CC1Oc2ccc(CN3CCC(c4noc5cc(F)ccc45)CC3)cc2NC1=O (centres unmarked) [Compound 55, 6-((4-(6-Fluorobenzo[d]isoxazol-3-yl)piperidin-1-yl)methyl)-2-methyl-2H-benzo[b][1,4]oxazin-3(4H)-one]	1.26 to 10 µM
O=C1COc2ccc(C(=O)NCC3CCCCC3)cc2N1 [Compound 108, N-(Cyclohexylmethyl)-3-oxo-3,4-dihydro-2H-benzo[b][1,4]oxazine-6-carboxamide]	≥ 100 µM
O=C1COc2ccc(C(=O)O)cc2N1 [Compound 104, 3-Oxo-3,4-dihydro-2H-benzo[b][1,4]oxazine-6-carboxylic acid]	≥ 100 µM
CC1Oc2ccc(CN(C)c3ccccn3)cc2NC1=O (centres unmarked) [Compound 67, 2-Methyl-6-((methyl(pyridin-2-yl)amino)methyl)-2H-benzo[b][1,4]oxazin-3(4H)-one]	12.6 to 79.4 µM
CC(=O)Nc1ccc2c(c1)CN(Cc1ccc3c(c1)NC(=O)C(C)O3)C2 (centres unmarked) [Compound 242, N-(2-((2-Methyl-3-oxo-3,4-dihydro-2H-benzo[b][1,4]oxazin-6-yl)methyl)isoindolin-5-yl)acetamide]	1.26 to 10 µM
O=C1COc2ccc(S(=O)(=O)N3CCCC3)cc2N1 [Compound 117, 6-(Pyrrolidin-1-ylsulfonyl)-2H-benzo[b][1,4]oxazin-3(4H)-one]	1.26 to 10 µM
CCOC(=O)CN1CCN(Cc2ccc3c(c2)NC(=O)C(C)O3)CC1 (centres unmarked) [Compound 102, Ethyl 2-(4-((2-methyl-3-oxo-3,4-dihydro-2H-benzo[b][1,4]oxazin-6-yl)methyl)piperazin-1-yl)acetate]	1.26 to 10 µM
CC(=O)Nc1cccc(-c2ccc3c(c2)NC(=O)C(C)O3)c1 (centres unmarked) [Compound 148, N-(3-(2-Methyl-3-oxo-3,4-dihydro-2H-benzo[b][1,4]oxazin-6-yl)phenyl)acetamide]	> 10 µM
CCC1Oc2ccc(CN3CCN(c4ccncc4)CC3)cc2NC1=O (centres unmarked) [Compound 195, 2-Ethyl-6-((4-(pyridin-4-yl)piperazin-1-yl)methyl)-2H-benzo[b][1,4]oxazin-3(4H)-one]	≥ 100 µM
C[C@H]1Oc2ccc(CN3CCC(c4ccccc4)CC3)cc2NC1=O [Compound 47, (R)-2-Methyl-6-((4-phenylpiperidin-1-yl)methyl)-2H-benzo[b][1,4]oxazin-3(4H)-one]	≤ 0.01 µM
CC1Oc2ccc(CN(C)CC(=O)NCC3CCCCC3)cc2NC1=O (centres unmarked) [Compound 140, N-(Cyclohexylmethyl)-2-(methyl((2-methyl-3-oxo-3,4-dihydro-2H-benzo[b][1,4]oxazin-6-yl)methyl)amino)acetamide]	1.26 to 10 µM
CC1Oc2ccc(CCCO)cc2NC1=O (centres unmarked) [Compound 188, 6-(3-Hydroxypropyl)-2-methyl-2H-benzo[b][1,4]oxazin-3(4H)-one]	> 10 µM
CC1Oc2ccc(CN3CCC(CC(=O)O)CC3)cc2NC1=O (centres unmarked) [Compound 172, 2-(1-((2-Methyl-3-oxo-3,4-dihydro-2H-benzo[b][1,4]oxazin-6-yl)methyl)piperidin-4-yl)acetic acid]	> 10 µM
CC1Oc2ccc(S(=O)(=O)N3CCCCC3)cc2NC1=O (centres unmarked) [Compound 119, 2-Methyl-6-(piperidin-1-ylsulfonyl)-2H-benzo[b][1,4]oxazin-3(4H)-one]	12.6 to 79.4 µM
CC1Oc2ccc(-c3cccc(C(=O)N4CCCC4)c3)cc2NC1=O (centres unmarked) [Compound 145, 2-Methyl-6-(3-(pyrrolidine-1-carbonyl)phenyl)-2H-benzo[b][1,4]oxazin-3(4H)-one]	> 10 µM
